# Legend:
# CD4+ effector cells = assay: Mixed lymphocyte culture, CFSE proliferation of effector cells by flow cytometry; format: cell-based, rat; conditions: 4 days culture
# Source text: Experiment method: From bodies of untreated rats (LEW-1A rats in Example 1), splenocytes were extracted according to the splenocytes extraction method described in Section 2.2.1. Splenocytes were fluorescence-labeled for TCR, CD4 and CD25, and by flow cytometry cell sorter TCR+CD4+CD25−cells were collected as CD4+ effector cells. Splenocytes after the removal of T-lymphocytes (TCR+cells), B cell lymphocytes (CD45R+cells) and NK cells (3.2.3+cells) by immuno-magnetic beads, were marked using fluorescent antibodies for TCR, CD11c and CD123 (antibody concentration was 5-10 μg/ml). By flow cytometry cell sorter, TCR-CD11c−CD123+cells were collected as pDC, and TCR-CD11c+CD123−cells were collected as mDC.
# Well separated CD4+ effector cells and pDC or mDC and defined regulatory cells, respectively in a proportion of 4/4/1 were added into a 96-well culture plate, 200 ul culture medium was added and they were cultured in a 5% CO2 incubator at 37 degrees Celsius for 4 days. During the cultivation, cinnamoyl anthranilic acid (1.2-150 μmol) or control DMSO solvent was added. Cells were stain labeled after the four days, and the proliferation of effector cells was analyzed by a flow cytometer.
# CD4+ effector cells before the mixed culture were marked by living organism dye CFSE (10*6 cells/ml in 5 μM CFSE). Labeled CD4+ effector cells were added to a mixed lymphocyte cultivation test, were marked again using fluorescent antibodies (TCR, CD4) after four days, and then were analyzed by a flow cytometer (TCR+CD4+gate) for effector cell proliferation.
# Cinnamoyl anthranilic acid was added in different concentrations (150 μM, 75 μM, 37.5 μM, 18.7 μM, 9.35 μM, 4.7 μM, 2.35 μM, 1.2 μM). Cell stain labeling was conducted after 4 days of the culture, and the proliferation of effector cells was analyzed by a flow cytometer.
# [1] = test system: BN donor transplanted rat hearts; assay: Heart transplantation model, BN rats as donor, LEW-1A rats as recipient, oral administration; format: in vivo; conditions: oral 500 mg/kg/day, four weeks; n=6
# Protocol: b) Heart Transplantation Animal Model with BN Rats as Donor and LEW-1A Rats as Recipient:
# BN rats were used as donors; donors hearts after being isolated were preserved in saline at 0-4° C. […] The donor's aorta and the recipient's abdominal aorta were sutured up with 8-0 Prolene vascular threads, and the donor's pulmonary artery and the recipient's vena cava were sutured up with 8-OProlene vascular threads. When blood vessels were opened, the rat's heart would immediately resume beating.
# (§1) Observation parameters: after the abdomen was closed, palpation was used to check the beating of a transplanted rat heart, to determine graft survival period. That transplanted heart stops beating within 3 weeks was considered as having acute rejection, that transplanted heart stops beating after one month was considered as having chronic rejection, and that transplanted heart beats normally for more than three months was considered as having immune tolerance.
# Experiment Methods: 12 rats from the experiment model established by method b) BN rats as donors and LEW-1A rats as recipients were used and divided into study and control groups, 6 rats for each group. […]
# [2] = after oral administration, cited from earlier work
# [3] = test system: LEW-1W donor transplanted rat hearts; assay: Heart transplantation model, LEW-1W rats as donor, LEW-1A as recipient, oral administration; format: in vivo; conditions: oral 500 mg/kg/day, four weeks; n=24
# Protocol: a) Heart Transplantation Animal Model with LEW-1W Rats as Donor, LEW-1a as Recipient:
# LEW-1W rats were used as donors; donors hearts after being isolated were preserved in saline at 0-4° C. […] The donor's aorta and the recipient's abdominal aorta were sutured up with 8-0 Prolene vascular threads, and the donor's pulmonary artery and the recipient's vena cava were sutured up with 8-0 Prolene vascular threads. When blood vessels were opened, the rat's heart would immediately resume beating, (please see Guillonneau C, Hill M, Hubert F X, Chiffoleau E, Hervé C, Xian-Liang Li, et al. CD40Ig treatment results in allograft acceptence mediated by CD8+CD45RClow T cells, IFN-γ and indoleamine 2,3 dioxygenase. Journal Clinical Investagtion. 2007; 117 (4): 1096-1106).
# as §1, with “tolerance. […]” for “tolerance.”
smiles,measurement,setting,value
COc1ccc(/C=C/C(=O)Nc2ccccc2C(=O)O)cc1OC [cinnamoyl anthranilic acid],effect on proliferation of CD4 effector T cells (CFSE),CD4+ effector cells; 37.5 μM to 9.35 μM,dose-dependent inhibitory effect
same,effect on activated CD4 effector cells at high concentrations,CD4+ effector cells; 150 μM and 75 μM,directly kill activated CD4 effector cells
same,effect on proliferation of CD4 effector cells at low concentration,CD4+ effector cells; below 4.7 μM,did not show the inhibitory effect
same,recipients overcame acute rejection,[1],100%
same,recipients with long-term survival with a state of induced immune tolerance,[1],50%
same,blood concentration at 48 h,[2]; 48 h,difficult to be detected
same,plasma half-life,[2],5 to 8.6 h
same,time to peak plasma concentration,[2],2 to 3 h
same,tissue distribution,[2],bronchial and lung have the highest concentration
same,recipients overcame acute rejection,[3],92%
same,recipients with long-term survival with a state of induced immune tolerance,[3],42%
